Laboratory results published in the supplement of paper PMC10307832.

Compound: CN(C)C[C@@H]1CCn2cc(c3ccccc32)C2=C(C(=O)NC2=O)c2cn(c3ccccc23)CCO1 [Ruboxistaurin]
Assay: relative viability (nuclei count vs DMSO), 5 days (fraction); higher = more cells survive
Method in brief: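 MetaXpress counted nuclei in 4× images of lung cancer cell lines that had been fixed, permeabilised and Hoechst-stained in one step. Before that, cells in 1536-well plates were kept overnight at 37 °C, pinned with five √10-spaced library-drug doses on vehicle-anchored plates, and cultured 5 days without medium change. Viability takes treated-well nuclei over vehicle-well nuclei and uses the median across plates. Plates were accepted only at control CV below 25% and at least one doubling.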

Cell Line	relative viability (0.08 µM)	relative viability (0.8 µM)	relative viability (2.53 µM)	relative viability (8 µM)
201T	1.03	0.98	1.01	0.973
A-427	0.997	0.871	0.924	0.821
ABC-1	1.16	0.951	1.16	0.89
BEN	1.05	0.902	0.877	0.857
CAL-12T	1.15	0.879	1.03	1.09
COR-L23	1.1	0.955	1.14	1.17
COR-L 105	1.08	0.803	0.949	0.782
ChaGo-K-1	1.06	0.976	1.06	0.961
EKVX	1.06	0.928	1.02	0.884
EMC-BAC-2	1.05	0.957	0.95	0.84
EPLC-272H	1.12	0.794	0.928	0.857
H3255	1.09	0.919	0.99	0.99
HARA	0.978	0.918	0.976	0.929
HCC-15	1.06	0.953	1.07	1.04
HCC-44	1.01	0.979	1.01	1.07
HCC-78	1.11	0.996	1.1	0.949
HCC-366	0.989	0.95	1.02	1.05
HCC-827	1.05	1.03	1.09	1.09
HOP-62	1.05	1.02	1.11	1.16
IA-LM	0.959	0.79	0.981	1
LC-2-ad	1.06	0.935	1.04	1.08
LCLC-97TM1	0.905	0.948	1.08	0.906
LCLC-103H	0.998	0.887	0.894	0.841
LK-2	0.952	1	1.12	0.833
LOU-NH91	1.09	0.939	1.01	0.927

Cell Line	relative viability (0.08 µM)	relative viability (0.8 µM)	relative viability (2.53 µM)	relative viability (8 µM)
LU99A	0.956	0.858	1.04	0.852
LXF-289	1.02	0.999	0.991	1.06
NCI-H23	0.974	0.892	1.03	0.886
NCI-H322M	1.02	0.863	0.895	0.551
NCI-H358	1.14	0.881	0.984	0.712
NCI-H441	1.14	0.936	1.19	0.947
NCI-H460	1.01	0.98	1.04	1.02
NCI-H520	1.05	0.901	1.02	0.779
NCI-H596	0.979	0.864	1.02	0.867
NCI-H647	1.1	0.898	1	0.978
NCI-H650	1.19	0.864	0.98	1.02
NCI-H661	1.03	0.962	1.05	1.04
NCI-H727	0.952	0.7	0.969	0.808
NCI-H838	1.03	0.839	0.964	0.923
NCI-H1355	1.05	0.882	0.971	0.944
NCI-H1395	1.05	0.844	1.01	0.882
NCI-H1437	1	0.914	0.993	1.07
NCI-H1563	1	0.947	1.07	0.886
NCI-H1650	1.24	0.742	1.08	0.886
NCI-H1651	1.02	0.983	1	1.03
NCI-H1666	1.09	1.02	1.04	0.968
NCI-H1703	1.19	0.697	0.876	0.724
NCI-H1734	0.989	0.832	1.04	0.816
NCI-H1755	1.01	1.01	0.974	1.03
NCI-H1792	1.09	0.78	0.938	0.796

Cell Line	relative viability (0.08 µM)	relative viability (0.8 µM)	relative viability (2.53 µM)	relative viability (8 µM)
NCI-H1793	1.05	0.749	1.27	1.08
NCI-H1915	0.984	0.958	0.998	0.962
NCI-H1944	0.958	0.897	0.932	0.819
NCI-H1975	0.945	0.834	1.02	0.927
NCI-H1993	1.18	0.756	0.908	0.696
NCI-H2009	1.04	0.946	1.06	1.19
NCI-H2023	1.02	0.788	1.08	0.735
NCI-H2085	1.02	0.942	1.07	1.04
NCI-H2087	1.17	0.976	1.05	1.06
NCI-H2126	1	0.898	1.04	0.934
NCI-H2170	0.994	0.875	1.06	0.953
NCI-H2228	0.94	0.89	1.01	0.93
NCI-H2342	1.02	0.915	1.06	1.04
NCI-H2347	1.07	0.976	1.08	1.08
NCI-H2405	1.17	0.97	1.01	1.01
NCI-H3122	0.98	0.963	1.01	1.07
PC-3 [JPC-3]	1.12	0.97	1.11	1.09
PC-14	1.17	0.924	1.01	0.989
RERF-LC-KJ	1.04	0.903	0.995	0.959
SK-LU-1	1.22	0.969	1.03	1.08
SK-MES-1	1.07	0.91	1.02	0.898
SW 900	0.897	0.897	1.14	0.958
SW 1573	1.16	0.871	1.02	0.907
UMC-11	0.964	0.914	0.974	0.762
